The structures appear in SMILES notation. Read-outs that look alike come from different tables or passages of the source.

One assay addresses Xenopus IRBP Module 1 (Xenopus laevis, UniProt Q7SZI7). Kind of assay: Fluorometric titration (enhancement, quenching). More on the design: cDNAs corresponding to the full-length IRBP, module 1, and module 2 were expressed in pThioHis; modules 3 and 4 were expressed in pTrxFus; made in house; host or cells: E. coli Top10 (pThioHis). It counts as binding. From the text: Enhancement of retinol fluorescence and quenching of the intrinsic protein fluorescence were used to monitor binding of all-trans retinol to the recombinant IRBPs. We previously derived an equation that is generally useful for describing such quantum yield changes that are consequent upon ligand binding. This equation has been previously applied to the analysis of binding by monitoring the enhancement of retinol fluorescence. In this case, where excitation is at 330 nm and emission is monitored at 480, the fluorescence enhancement (Fenh) depends on the total retinol concentration (Rt), the dissociation constant (Kd ^all-trans), the number of retinol-binding sites per protein molecule (N) and the total protein concentration (Pt).
(§1) Assuming that there is a single type of noninteracting site on the protein, (Fenh) is expected to be linearly related to the concentration of bound retinol molecules. Fenh is given by the relation
(§2) Fenh=C1+C2[Rtall−trans−(Rtall−trans+NPt+Kdall−trans)^2−4NPtRtall−trans] MathType@MTEF@5@5@+=feaafiart1ev1aaatCvAUfKttLearuWrP9MDH5MBPbIqV92AaeXatLxBI9gBaebbnrfifHhDYfgasaacH8akY=wiFfYdH8Gipec8Eeeu0xXdbba9frFj0=OqFfea0dXdd9vqai=hGuQ8kuc9pgc9s8qqaq=dirpe0xb9q8qiLsFr0=vr0=vr0dc8meaabaqaciaacaGaaeqabaqabeGadaaakeaacqWGgbGrdaWgaaWcbaGaemyzauMaemOBa4MaemiAaGgabeaakiabg2da9iabdoeadnaaBaaaleaacqaIXaqmaeqaaOGaey4kaSIaem4qam0aaSbaaSqaaiabikdaYaqabaGcdaWadaqaaiabdkfasnaaDaaaleaacqWG0baDaeaacqWGHbqycqWGSbaBcqWGSbaBcqGHsislcqWG0baDcqWGYbGCcqWGHbqycqWGUbGBcqWGZbWCaaGccqGHsisldaGcaaqaamaabmaabaGaemOuai1aa0baaSqaaiabdsha0bqaaiabdggaHjabdYgaSjabdYgaSjabgkHiTiabdsha0jabdkhaYjabdggaHjabd6gaUjabdohaZbaakiabgUcaRiabd6eaojabdcfaqnaaBaaaleaacqWG0baDaeqaaOGaey4kaSIaem4saS0aa0baaSqaaiabdsgaKbqaaiabdggaHjabdYgaSjabdYgaSjabgkHiTiabdsha0jabdkhaYjabdggaHjabd6gaUjabdohaZbaaaOGaayjkaiaawMcaamaaCaaaleqabaGaeGOmaidaaOGaeyOeI0IaeGinaqJaemOta4Kaemiuaa1aaSbaaSqaaiabdsha0bqabaGccqWGsbGudaqhaaWcbaGaemiDaqhabaGaemyyaeMaemiBaWMaemiBaWMaeyOeI0IaemiDaqNaemOCaiNaemyyaeMaemOBa4Maem4CamhaaaqabaaakiaawUfacaGLDbaaaaa@8490@
The equation was fit to the data by nonlinear least-squares analysis. To follow the quenching of the protein's intrinsic fluorescence the excitation and emission wavelengths were set to 280 nm and 340 nm, respectively, while the protein was titrated with all-trans retinol. For the quenching studies the inner filter effect was accounted for by graphical correction as previously described. Fluorescence measurements were made using an SLM 8000TM C photon counting spectrofluorometer corrected for wavelength dependence of source energy and detector response.

Another assay addresses T1, Xenopus IRBP Module 2 (Xenopus laevis, UniProt Q7SZI7).
T1 construct: cDNAs corresponding to the full-length IRBP, module 1, and module 2 were expressed in pThioHis; modules 3 and 4 were expressed in pTrxFus; made in house; host or cells: E. coli Top10 (pThioHis)
T1 sequence (Q7SZI7 319-617 limits assumed): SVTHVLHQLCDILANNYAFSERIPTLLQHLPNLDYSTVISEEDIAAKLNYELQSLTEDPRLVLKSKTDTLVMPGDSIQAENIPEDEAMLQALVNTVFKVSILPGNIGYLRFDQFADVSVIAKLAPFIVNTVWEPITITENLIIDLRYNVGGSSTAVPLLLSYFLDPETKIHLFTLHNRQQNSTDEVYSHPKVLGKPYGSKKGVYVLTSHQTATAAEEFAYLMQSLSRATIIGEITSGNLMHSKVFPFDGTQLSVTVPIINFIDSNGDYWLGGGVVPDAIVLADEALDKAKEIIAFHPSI
Details: method as in Loew et al. Exp Eye Res. 2001, 73:257–264. The note with it: ref Loew et al. Exp Eye Res. 2001, 73:257–264, cited from earlier work.

The next assay concerns the target T2, full-length Xenopus IRBP (Xenopus laevis, UniProt Q7SZI7).
T2 construct: We expressed the full-length IRBP as well as its individual modules as thioredoxin-fusion proteins using pTrxFus and pThioHis vectors; made in house; host or cells: E. coli Top10 (pThioHis)
Kind of assay: Fluorometric titration (ligand fluorescence enhancement, protein quenching, energy transfer). The format is binding.
Text: The binding parameters of retinoid-binding proteins including IRBP may be determined by fluorescence spectroscopy. The method utilizes changes in quantum yield occurring during ligand binding. Such changes are represented by enhancement of ligand fluorescence, quenching of intrinsic protein fluorescence, and transfer of energy from protein to bound ligand. Fluorescence enhancement occurs if the quantum yield of the ligand's fluorescence is higher in the hydrophobic environment of the ligand-binding domain compared to that outside of the domain.
[…] We previously derived an equation that is generally useful for describing such quantum yield changes that are consequent upon ligand binding. This equation has been previously applied to the analysis of binding by monitoring the enhancement of retinol fluorescence. In this case, […], the fluorescence enhancement (Fenh) depends on the total retinol concentration (Rt), the dissociation constant (Kd ^all-trans), the number of retinol-binding sites per protein molecule (N) and the total protein concentration (Pt).
as §1, §2
The equation was fit to the data by nonlinear least-squares analysis. […] For the quenching studies the inner filter effect was accounted for by graphical correction as previously described. Fluorescence measurements were made using an SLM 8000TM C photon counting spectrofluorometer corrected for wavelength dependence of source energy and detector response.

Setting [1] is: all-trans retinol fluorescence enhancement, ex 330 nm, em 480 nm.
Setting [2] is: all-trans retinol fluorescence enhancement, ex 330 nm, em 480 nm, read-out: Kd, Enhancement.
The mark [3] stands for this setting: quenching by all-trans retinol, ex 280 nm, em 340 nm, read-out: Kd, Quenching.

T2 sequence (Q7SZI7 23-1219): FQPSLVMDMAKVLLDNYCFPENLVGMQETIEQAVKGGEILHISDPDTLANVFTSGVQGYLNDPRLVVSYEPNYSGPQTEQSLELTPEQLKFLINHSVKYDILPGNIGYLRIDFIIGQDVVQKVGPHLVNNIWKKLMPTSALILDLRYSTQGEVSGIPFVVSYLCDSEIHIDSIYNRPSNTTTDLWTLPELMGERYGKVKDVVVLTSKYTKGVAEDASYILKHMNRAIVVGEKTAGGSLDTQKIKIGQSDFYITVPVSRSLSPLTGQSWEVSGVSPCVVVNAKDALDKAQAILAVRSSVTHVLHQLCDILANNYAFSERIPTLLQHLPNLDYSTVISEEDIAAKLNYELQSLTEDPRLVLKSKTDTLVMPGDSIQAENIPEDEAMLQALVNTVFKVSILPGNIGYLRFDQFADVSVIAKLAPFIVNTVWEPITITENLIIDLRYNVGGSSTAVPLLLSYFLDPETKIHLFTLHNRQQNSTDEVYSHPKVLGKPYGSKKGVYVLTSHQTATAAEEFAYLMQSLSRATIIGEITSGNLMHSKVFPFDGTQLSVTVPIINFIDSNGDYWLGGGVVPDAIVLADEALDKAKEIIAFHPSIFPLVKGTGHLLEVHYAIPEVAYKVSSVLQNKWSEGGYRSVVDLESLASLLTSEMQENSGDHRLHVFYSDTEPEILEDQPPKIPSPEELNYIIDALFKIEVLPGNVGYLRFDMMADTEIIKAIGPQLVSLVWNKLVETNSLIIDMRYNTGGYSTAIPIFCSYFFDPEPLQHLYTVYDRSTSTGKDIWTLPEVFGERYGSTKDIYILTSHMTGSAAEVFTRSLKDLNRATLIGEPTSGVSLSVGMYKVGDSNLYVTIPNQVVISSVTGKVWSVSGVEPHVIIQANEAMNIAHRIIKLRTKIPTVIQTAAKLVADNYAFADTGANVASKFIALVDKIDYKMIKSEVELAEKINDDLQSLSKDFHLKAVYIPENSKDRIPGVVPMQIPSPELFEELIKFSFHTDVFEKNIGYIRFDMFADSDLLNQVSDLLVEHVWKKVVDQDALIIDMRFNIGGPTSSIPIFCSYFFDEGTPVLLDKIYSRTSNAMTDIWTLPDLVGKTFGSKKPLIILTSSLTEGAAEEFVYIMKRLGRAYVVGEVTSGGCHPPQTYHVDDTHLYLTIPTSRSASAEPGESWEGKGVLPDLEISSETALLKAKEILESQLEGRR
Xenopus IRBP Module 1, sequence (Q7SZI7 23-315): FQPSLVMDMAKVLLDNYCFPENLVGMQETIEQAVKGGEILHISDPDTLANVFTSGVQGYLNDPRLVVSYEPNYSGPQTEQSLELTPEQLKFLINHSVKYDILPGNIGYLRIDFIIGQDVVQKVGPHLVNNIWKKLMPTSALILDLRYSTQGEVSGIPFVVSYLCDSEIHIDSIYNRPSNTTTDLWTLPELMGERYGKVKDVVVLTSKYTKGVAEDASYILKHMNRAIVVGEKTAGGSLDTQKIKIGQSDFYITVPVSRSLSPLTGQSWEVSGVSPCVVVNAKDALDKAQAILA

Usually Kd stands for the free concentration of one partner at which half of the binding sites on the other are occupied at equilibrium, for simple one-to-one binding. With `CC1=C(/C=C/C(C)=C/C=C/C(C)=C/CO)C(C)(C)CCC1` [all-trans retinol], the “Binding sites (N), Enhancement” value is given as 0.83 ± 0.15 on Xenopus IRBP Module 1 (setting [1]); 1.57 ± 0.04 on Xenopus IRBP Module 2 (setting [1]); 3.19 ± 0.10 on full-length Xenopus IRBP (all-trans retinol fluorescence enhancement, ex 330 nm, em 480 nm, IRBP 0.65 μM). Besides, the Kd at Xenopus IRBP Module 1 (setting [2]) was 440 ± 130 nM; at Xenopus IRBP Module 1 (setting [3]), 350 ± 80 nM; on Xenopus IRBP Module 2 (setting [2]), 84 ± 22 nM; on Xenopus IRBP Module 2 (setting [3]) it was 140 ± 40 nM; on full-length Xenopus IRBP (all-trans retinol fluorescence enhancement, ex 330 nm, em 480 nm, IRBP 0.65 μM, read-out: Kd, Enhancement) it was 300 ± 50 nM; at full-length Xenopus IRBP (all-trans retinol, energy transfer, ex 280 nm, em 480 nm, read-out: Kd, energy transfer) it was 290 ± 120 nM. Besides, the Kd on full-length Xenopus IRBP (quenching of protein fluorescence by all-trans retinol, ex 280 nm, em 340 nm, read-out: Kd, Quenching) is 660 ± 140 nM; on full-length Xenopus IRBP (summary statement of the abstract, read-out: Kd (summary)), 200 to 300 nM. Besides, the “Binding sites (N), Quenching” value on Xenopus IRBP Module 2 (quenching by all-trans retinol, ex 280 nm, em 340 nm) is on record as 1.31 ± 0.06; at full-length Xenopus IRBP (quenching of protein fluorescence by all-trans retinol, ex 280 nm, em 340 nm), 1.93 ± 0.41. Also, the “Binding sites (N), energy transfer” value at full-length Xenopus IRBP (all-trans retinol, energy transfer, ex 280 nm, em 480 nm) is reported as 3.72 ± 0.20.

In the case of `CC1=C(/C=C/C(C)=C/C=C/C(C)=C/C=O)C(C)(C)CCC1` [11-cis retinal], the “Binding sites (N), Quenching” value on full-length Xenopus IRBP (quenching of protein fluorescence by 11-cis retinaldehyde, ex 280 nm, em 340 nm) stood at 1.81 ± 0.15. At full-length Xenopus IRBP (quenching of protein fluorescence by 11-cis retinaldehyde, ex 280 nm, em 340 nm, read-out: Kd 11-cis, Quenching), the Kd is 280 ± 50 nM.

The values above are taken from article PMC2000878, “Module structure of interphotoreceptor retinoid-binding protein (IRBP) may provide bases for its complex role in the visual cycle – structure/function study of Xenopus IRBP” (BMC Biochemistry, 2007).
